Laboratory results published in patent publication US12419848B2, “Treatment of hyperinflammatory syndrome” (priority 2020, dated 2025).
Where a name gives a salt, the structure may show the parent alone.

Tests used:
[1] = system: chronic interstitial cystitis; assay: Example 13: chronic interstitial cystitis; assay type: in vivo, human; conditions: for effect on symptoms (prior treatment): in vivo
[2] = system: psoriatic arthritis, herpes zoster infection; assay: Example 11: psoriatic arthritis with herpes zoster
[3] = system: posttraumatic epileptic seizures; assay: Example 21: posttraumatic epileptic seizures; assay type: in vivo, human
rheumatoid arthritis = assay: Example 30: rheumatoid arthritis; design: species or system human; conditions: in vivo
P2X7R = target: T1, P2X7R (Homo sapiens, UniProt Q99572); design: endogenous in cells; host or cells: human subjects (clinical trials reported elsewhere); conditions: administered orally; cited from earlier work
T1 sequence (Q99572 1-595): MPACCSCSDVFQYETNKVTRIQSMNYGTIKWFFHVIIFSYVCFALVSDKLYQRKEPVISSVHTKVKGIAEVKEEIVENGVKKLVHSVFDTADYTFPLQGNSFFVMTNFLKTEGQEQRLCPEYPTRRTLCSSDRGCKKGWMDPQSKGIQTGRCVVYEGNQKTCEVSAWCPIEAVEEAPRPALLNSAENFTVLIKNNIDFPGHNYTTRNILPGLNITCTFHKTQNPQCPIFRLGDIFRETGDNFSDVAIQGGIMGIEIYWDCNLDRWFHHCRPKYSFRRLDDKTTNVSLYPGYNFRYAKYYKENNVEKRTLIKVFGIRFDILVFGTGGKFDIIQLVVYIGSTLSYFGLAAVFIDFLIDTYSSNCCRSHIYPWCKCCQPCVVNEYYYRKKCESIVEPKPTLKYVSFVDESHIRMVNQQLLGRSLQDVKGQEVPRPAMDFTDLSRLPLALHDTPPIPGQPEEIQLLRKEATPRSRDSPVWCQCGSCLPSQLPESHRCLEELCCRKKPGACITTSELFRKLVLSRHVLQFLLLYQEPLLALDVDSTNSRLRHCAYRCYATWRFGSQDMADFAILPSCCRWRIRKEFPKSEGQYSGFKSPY

[4] = Examples 1-6: safety (ECG, metHb, confusion); conditions: for Blood metHb: within the normal range
COVID-19 [5] = assay: Example 7: COVID-19 case; assay type: in vivo, human
From the text: On Mar. 24, 2020, a person developed cough, dyspnoea, myalgia, pain in hip and groin, shivers but no fever. A COVID-19 test was not performed. This occurred one week after closely working together with a colleague who developed proven severe COVID-19 requiring hospital admission.
On Jul. 12, 2020, (day 1) the patient developed new symptoms comprising shivers, joint pain (knees, hips, shoulders) and conjunctivitis of the left eye. They reported sick at work. The infection probably occurred on Jul. 1, 2020. On that day they met many people during their work at the office and in the evening they went for a drink in a bar with a few colleagues. The infection occurred despite social distancing and hand sanitising. At that time no one wore a face mask. […] On July 21 (day 10), 2020, the IgA antibody test for COVID-19 result was positive.
A few hours later a clinical deterioration occurred with extreme fatigue, chest pain and pain in the right upper arm. The treatment was converted to transdermal lidocaine cream. […] As much as 400 mg cream is applied over the skin and covered by Tegaderm transparent wound dressing. […] But after 6 hours the infusion rate was increased to 63 mg/hour (1 mg/kg/hr) due to persistent symptoms.
Day 85, after almost 3 weeks with no symptoms other than a fluctuating pain in the upper arm, the prickling sensations of the lung returned. SpO2 96%, HR 90/min, BP 95/68 mm Hg, temperature […]. […] Inhalation of the lidocaine solution was avoided.

COVID-19 [6] = assay type: in vivo
terminal cancer patients = assay: Example 17: diverse cancer, palliative; assay type: in vivo, human; conditions: for time to relief of pain, nausea and/or extreme fatigue: continuous subcutaneous 1 mg/kg/hr; for SIP68: 10 patients, before treatment 48 (range 18-68)
ALS = assay: Example 18: amyotrophic lateral sclerosis; assay type: in vivo, human
[7] = system: renal function impairment; assay: Example 16: advanced cervix carcinoma and renal dysfunction; assay type: in vivo, human; conditions: continuous subdermal 1 mg/kg/hr
myasthenia gravis = assay: Example 24: myasthenia gravis; assay type: in vivo, human; conditions: oral 4×60 mg/d
Method: A person was diagnosed having myasthenia gravis. They suffered from muscle weakness of the arms and hand after physical activity. The diagnosis was confirmed with EMG and positive test for antibodies against acetylcholine receptor (AChR). They were treated with oral anticholinesterase drug (mestinon) 4×60 mg/d. […] The treatment was continued for 2 weeks.

[8] = system: idiopathic Parkinson's disease
ulcerative colitis = assay: Example 27: ulcerative colitis; assay type: in vivo, human; conditions: oral CR 3×400 mg/d

With `COc1ccc2c3c1O[C@H]1C(=O)CC[C@@]4(O)[C@@H](C2)N(C)CC[C@]314` [Oxycodone] as the molecule, how does the “effect on symptoms (prior treatment)” value [1] read?
The value was “had no effect on their symptoms”.

Which “effect on symptoms (prior treatment)” value [1] does the source give for `CC(=O)Nc1ccc(O)cc1` [paracetamol] here?
Its value is “had no effect on their symptoms”.

Which “effect on herpes zoster pain” value ([2]; before lidocaine treatment) does the source give for `CN1CC[C@]23c4c5ccc(O)c4O[C@H]2[C@@H](O)C=C[C@H]3[C@H]1C5` [Morphine] here?
The value was “did not subside the pain”.

What about the side effect ([2]; in vivo) of the same molecule?
Its side effect is “developed obstipation”.

What does the source list for `CCN(CC)CC(=O)Nc1c(C)cccc1C` [Lidocaine hydrochloride]?
EEG epileptic activity of the brain ([3]; subdermal 1 mg/kg/hour): had disappeared; time to disappearance of seizures ([3]; subdermal 1 mg/kg/hour, 20 mg/ml solution): ≤ 30 min

With `CN(Cc1cnc2nc(N)nc(N)c2n1)c1ccc(C(=O)N[C@@H](CCC(=O)O)C(=O)O)cc1` [methotrexate] as the molecule, how does the “effect on symptoms (prior treatment)” value (rheumatoid arthritis) read?
The value was “did not improve the symptoms”.

With `COC[C@H](O)Cn1c(=O)cnn(-c2ccc(Cl)c(C(=O)NCC3(O)CCCCCC3)c2)c1=O` [CE-224,535 500] as the molecule, how does the “outcome of oral administration” value (P2X7R) read?
The value was “without great success”.

Which “new ECG changes during treatment with lidocaine” value (shortened to “new ECG changes during treatment”) ([4]; Patient 1) does the source give for `CCN(CC)CC(=O)Nc1c(C)cccc1C` [lidocaine] here?
The value was “No new ECG changes”.

What about the “Blood metHb” value ([4]; Patient 1) of the same molecule?
Its value is 0.3-0.8%.

What about the “new ECG changes during treatment” value ([4]; Patient 2) of the same molecule?
The value was “No new ECG changes”.

What about the “signs of confusion after extubation” value ([4]; Patient 2, day 22, on lidocaine) of the same molecule?
Its value is “no signs of confusion”.

What about the “Blood metHb” value ([4]; Patient 2) of the same molecule?
The value was 0.1-0.6%.

What about the “new ECG changes during treatment” value ([4]; Patient 3) of the same molecule?
The value was “No new ECG changes”.

What about the “signs of confusion after extubation” value ([4]; Patient 3, day 5) of the same molecule?
Its value is “no signs of confusion”.

What about the “Blood metHb” value ([4]; Patient 3) of the same molecule?
The value was 0.1-0.4%.

What about the “new ECG changes during treatment” value ([4]; Patient 4) of the same molecule?
Its value is “No new ECG changes”.

What about the “signs of confusion after extubation” value ([4]; Patient 4) of the same molecule?
Its value is “no signs of confusion”.

What about the “Blood metHb” value ([4]; Patient 4) of the same molecule?
Its value is 0.1-0.3%.

And the “new ECG changes during treatment” value ([4]; Patient 5)?
The value was “No new ECG changes”.

What about the “signs of confusion after extubation” value ([4]; Patient 5, day 10) of the same molecule?
The value was “no signs of confusion”.

What about the “Blood metHb” value ([4]; Patient 5) of the same molecule?
The value was 0.1-0.3%.

And the “new ECG changes during treatment” value ([4]; Patient 6)?
The value was “No new ECG changes”.

And the “signs of confusion after extubation” value ([4]; Patient 6, day 10)?
The value was “no signs of confusion”.

And the “Blood metHb” value ([4]; Patient 6)?
Its value is 0.1-0.3%.

And the symptoms (COVID-19 [5]; continuous subdermal 0.5 mg/kg/hr, after a few hours (March 2020))?
The symptoms was “practically free of symptoms”.

What about the symptoms (COVID-19 [5]; day 11, infusion 24 hours per day) of the same molecule?
The symptoms was “improved gradually”.

What about the symptoms (COVID-19 [5]; day 12-13, subdermal 0.63 mg/kg/hr plus amoxicilline) of the same molecule?
The symptoms was “improved significantly”.

What about the clinical improvement (COVID-19 [5]; day 18, subdermal 40 mg/hour, after 1 hour) of the same molecule?
Its clinical improvement is “clinical improvement was noticeable”.

What about the symptoms (COVID-19 [5]; day 18, subdermal 63 mg/hour (1 mg/kg/hr)) of the same molecule?
Its symptoms is “the symptoms disappeared with the exception of the pain in the upper arm”.

What about the symptoms (COVID-19 [5]; day 23, lidocaine infusion) of the same molecule?
Its symptoms is “reduced the symptoms to tolerable levels”.

And the “time to improvement of symptoms” value (COVID-19 [5]; day 46, continuous subdermal 0.63 mg/kg/hr)?
The value was ≤ 30 min.

What about the symptoms (COVID-19 [5]; day 61, continuous subdermal 0.63 mg/kg/hr) of the same molecule?
The symptoms was “the symptoms subsided”.

What about the “time to disappearance of prickling sensations and oppressive feeling on chest” value (COVID-19 [5]; from day 85, sublingual 3×100 mg/d) of the same molecule?
The value was 20 min.

What about the symptoms after relapse (COVID-19 [5]; reinitiated continuous subcutaneous infusion) of the same molecule?
Its symptoms after relapse is “subsided again”.

What about the symptoms (COVID-19 [5]; subdermal 0.63 mg/kg/hr, day 1 (Jul. 12, 2020)) of the same molecule?
The symptoms was “improved within a few hours”.

What about the clinical condition (COVID-19 [5]; subdermal infusion reinitiated Apr. 1, 2020, after a few days) of the same molecule?
Its clinical condition is “the clinical condition improved”.

And the “all symptoms except dry mouth feelings and mild fatigue” value (COVID-19 [6]; day 8, sublingual 3×60 mg/d)?
Its value is “disappeared completely”.

And the “runny nose, headache, neck pain and neck stiffness” value (COVID-19 [6]; sublingual 5×60 mg, 24 hours after initiation)?
Its value is “disappeared”.

And the “time to relief of pain, nausea and/or extreme fatigue” value (terminal cancer patients; 7 of 10 patients)?
The value was ≤ 2 h.

And the SIP68 (terminal cancer patients; after 3 days)?
Its SIP68 is 33 (range 12-58).

What about the SIP68 (terminal cancer patients; after 7 days) of the same molecule?
Its SIP68 is 28 (range 12-56).

What about the “time to relief of pain, nausea and/or extreme fatigue” value (terminal cancer patients; remaining patients) of the same molecule?
The value was ≤ 48 h.

And the “MRC muscle strength: Upper arm abduction left” value (ALS; six months, sublingual 4×100 mg/d, before 4)?
The value was 5.

And the “MRC muscle strength: Foot extension left” value (ALS; six months, before 1)?
The value was 2.

And the “MRC muscle strength: Foot extension right” value (ALS; six months, before 1)?
The value was 2.

And the “MRC muscle strength: Foot flexion left” value (ALS; six months, before 2)?
Its value is 3.

And the “MRC muscle strength: Foot flexion right” value (ALS; six months, before 2)?
The value was 3.

What about the “MRC muscle strength: Elbow flexion left” value (ALS; six months, before 4) of the same molecule?
Its value is 4.

And the “MRC muscle strength: Elbow flexion right” value (ALS; six months, before 4)?
Its value is 4.

What about the “MRC muscle strength: Knee flexion left” value (ALS; six months, before 4) of the same molecule?
The value was 5.

And the “MRC muscle strength: Knee flexion right” value (ALS; six months, before 4)?
Its value is 5.

What about the “MRC muscle strength: Upper arm abduction right” value (ALS; six months, before 4) of the same molecule?
Its value is 5.

What about the muscle cramping (ALS; sublingual 4×100 mg/d, after one week) of the same molecule?
The muscle cramping was “gradually disappeared”.

What about the symptoms (polymyalgia rheumatica; nocturnal continuous subdermal 0.5 mg/kg/hr, 8 hours, 2 x/week) of the same molecule?
Its symptoms is “disappeared after the first treatment”.

And the “time to disappearance of symptoms” value (polymyalgia rheumatica; sublingual 2×60 mg/d)?
The value was ≤ 1 h.

What about the renal function [7] of the same molecule?
The renal function was “improved”.

What about the symptoms ([1]; continuous subcutaneous 1 mg/kg/hr, after 2 days) of the same molecule?
Its symptoms is “practically free of symptoms”.

For `CN(C)C(=O)Oc1ccc[n+](C)c1` [mestinon], which “efficacy during influenza A infection” value (myasthenia gravis) is on record?
Its value is “no longer effective”.

With “tocilizumab: disease-modifying antirheumatic drug” as the molecule, how does the “effect on symptoms (prior treatment)” value (rheumatoid arthritis) read?
The value was “did not improve the symptoms”.

With `O=C(NCC12CC3CC(CC(C3)C1)C2)c1cc(CCCNCCCO)ccc1Cl` [AZD9056] as the molecule, how does the “outcome of oral administration” value (P2X7R) read?
Its value is “without great success”.

What does the source list for `N[C@@H](Cc1ccc(O)c(O)c1)C(=O)O` [levodopa]?
side effect after increasing dosage ([8]; in vivo): levodopa-induced chorea; symptoms (prior treatment) ([8]; initially, symptoms returned after 6 years): the symptoms improved clearly

For `CN1C(=O)CN=C(c2ccccc2)c2cc(Cl)ccc21` [diazepam], which “effect on generalised epileptic seizures” value ([3]; repeated 10 mg intravenous) is on record?
Its value is “had no effect”.

With `Nc1ccc(O)c(C(=O)O)c1` [mesalamine] as the molecule, how does the “response of symptoms in this exacerbation” value (ulcerative colitis) read?
Its value is “did not respond”.
